Read-outs that look alike come from different tables or passages of the source.
Assays:
CHIKV = assay: Antiviral activity against CHIKV; format: cell-based; conditions: Chikungunya virus
in vitro [1] = assay: in vitro
EBOV (VP30, Huh) = assay: microbe, parasite or virus in culture; format: cell-based, Ebola Virus; conditions: for EC50: read-out: EC50, EBOV (VP30, Huh)
in vitro [2] = conditions: human
DENV2 = assay: Antiviral activity against DENV2; format: cell-based; conditions: Dengue Virus 2
DENV4 = assay: Antiviral activity against DENV4; format: cell-based; conditions: Dengue Virus 4
SARS-CoV-2 (Omicron) = assay: microbe, parasite or virus in culture; format: cell-based; conditions: Severe acute respiratory syndrome coronavirus 2, Calu-3, read-out: IC50, SARS-CoV-2 (Omicron) (Calu3) #1
[3] = Cytotoxicity (CC50) alongside DENV2 assay
SARS-CoV-2 (WA-1) [4] = assay: microbe, parasite or virus in culture; format: cell-based; conditions: Severe acute respiratory syndrome coronavirus 2, A549, read-out: IC50, SARS-CoV-2 (WA-1) #1
SARS-CoV-2 (WA-1) [5] = assay: microbe, parasite or virus in culture; format: cell-based; conditions: Severe acute respiratory syndrome coronavirus 2, A549, read-out: IC50, SARS-CoV-2 (WA-1) #2
[6] = Cytotoxicity (CC50) alongside SARS-CoV-2 WA-1 assay, lab #1; conditions: human, A549 cells
[7] = Cytotoxicity (CC50) alongside SARS-CoV-2 WA-1 assay, lab #2; conditions: human, A549 cells
SARS-CoV-2 (A549-hACE2) = assay: microbe, parasite or virus in culture; format: cell-based
VEEV = assay: microbe, parasite or virus in culture; format: cell-based; conditions: Venezuelan equine encephalitis virus, read-out: EC50, VEEV
OC43 = assay: Antiviral activity against OC43 (Huh 7.5 IFITM3); format: cell-based, human coronavirus; conditions: Betacoronavirus 1, OC43, Huh7.5
in vitro [8] = assay: in vitro; remark: listed apart in the source
[9] = Cytotoxicity (CC50) alongside DENV4 assay
[10] = Cytotoxicity (CC50) alongside SARS-CoV-2 (A549-hACE2) assay; conditions: human, A549-hACE2 cells
[11] = Zaire ebolavirus, Huh-7, read-out: IC50, EBOV (VP30, Huh)

SMILES: CC(C)OC(=O)[C@H](C)N[P@](=O)(OC[C@H]1O[C@@H](n2cnc3sc4c(=O)[nH]cnc4c32)C(O)C1O)Oc1ccccc1 (stereo in doubt) [CEM-010]
- IC50 (CHIKV): 82.5 µM
- CC50 (in vitro [1]): > 100 µM

SMILES: CC1(F)C(O)[C@@H](CO)O[C@H]1n1cnc2sc3c(N)nc(N)nc3c21 (stereo in doubt) [CEM-024, 2′-deoxy-2′-fluoro-2′-C-methyl-1′-[(5,7-diaminoimidazo-[4′,5′:4,5]thieno[3,2-d]pyrimidin-3-yl)]-β-D-ribofuranose]
- IC50 (EBOV (VP30, Huh); [11]): 31 µM
- CC50 (in vitro [2]): 11 µM

SMILES: Nc1nc(N)c2sc3ncn([C@@H]4O[C@H](CO)C(O)C4O)c3c2n1 (stereo partly drawn) [CEM-007, 1-[(5,7-diaminoimidazo-[4′,5′:4,5]thieno[3,2-d]pyrimidin-3-yl)]-β-D-ribofuranose-2,3,5-Triol]
- IC50 (DENV2): 45 µM
- IC50 (DENV4): 64 µM
- IC50 (SARS-CoV-2 (Omicron)): 56.4 µM
- IC50 (EBOV (VP30, Huh); [11]): 15.2 µM
- EC50 (EBOV (VP30, Huh); Zaire ebolavirus): 40.5 µM
- IC50 (EBOV (VP30, Huh); read-out: IC50, EBOV (VP30, Huh)): 11.7 µM
- CC50 (in vitro [2]): > 100 µM

SMILES: CC(C)OC(=O)[C@H](C)N[P@](=O)(OC[C@H]1O[C@@H](n2cnc3sc4c(N)ncnc4c32)C(O)C1O)Oc1ccccc1 (stereo partly shown) [CEM-012]
- IC50 (EBOV (VP30, Huh); [11]): 49.3 µM
- CC50 (in vitro [2]): 17.7 µM

SMILES: CC(C)OC(=O)[C@H](C)N[P@](=O)(OC[C@H]1O[C@@H](n2cnc3sc(C(N)=O)c(N)c32)C(O)C1O)Oc1ccccc1 (stereo partly shown) [CEM-015]
- IC50 (CHIKV): 93.9 µM

SMILES: Nc1nc2c(sc3ncn([C@@H]4O[C@H](CO)C(O)C4O)c32)c(=O)[nH]1 (stereo partly drawn) [CEM-021, 1-[(5-Aminoimidazo[4′,5′:4,5]thieno[3,2-d]pyrimidin-3-yl-7-one)]-β-D-ribofuranose 2,3,5-Triol]
- IC50 (DENV2): 73.5 µM
- IC50 (DENV4): 100 µM
- IC50 (EBOV (VP30, Huh); [11]): 43.6 µM
- CC50 (in vitro [2]): 60.5 µM
- CC50 [3]: > 100 µM

SMILES: COc1nc(OC)c2sc3ncn([C@@H]4O[C@H](CO)C(O)C4O)c3c2n1 (stereo partly drawn) [CEM-028, 1-[(5,7-dimethoxyimidazo-[4′,5′:4,5]thieno[3,2-d]pyrimidin-3-yl)]-β-D-ribofuranose-2,3,5-Triol]
- IC50 (EBOV (VP30, Huh); [11]): 48 µM
- CC50 (in vitro [2]): 138 µM

SMILES: COc1nc(OC)c2sc3ncn([C@@H]4O[C@H](CO[P@@](=O)(N[C@@H](C)C(=O)OC(C)C)Oc5ccccc5)C(O)C4O)c3c2n1 (stereo partly shown) [CEM-036]
- IC50 (DENV2): 24 µM
- IC50 (DENV4): 34 µM
- IC50 (SARS-CoV-2 (Omicron)): > 100 µM
- IC50 (SARS-CoV-2 (WA-1) [4]): 21.6 µM
- IC50 (SARS-CoV-2 (WA-1) [5]): 48.4 µM
- IC50 (EBOV (VP30, Huh); [11]): 37.7 µM
- CC50 [3]: > 100 µM
- CC50 [6]: > 100 µM
- CC50 [7]: > 100 µM

SMILES: CC(C)OC(=O)[C@H](C)N[P@@](=O)(Oc1ccccc1)OC1[C@@H](CO[P@@](=O)(N[C@@H](C)C(=O)OC(C)C)Oc2ccccc2)O[C@@H](n2cnc3sc4c(N)nc(N)nc4c32)C1(C)F (stereo partly shown) [CEM-042]
- IC50 (DENV2): 3.5 µM
- IC90 (DENV2): 6.8 µM
- IC50 (DENV4): 7.5 µM
- IC90 (DENV4): 25 µM
- IC50 (SARS-CoV-2 (Omicron)): 7.36 µM
- IC50 (SARS-CoV-2 (WA-1) [4]): 3.58 µM
- IC50 (SARS-CoV-2 (WA-1) [5]): 5.89 µM
- EC50 (SARS-CoV-2 (A549-hACE2); Severe acute respiratory syndrome coronavirus 2, read-out: EC50, SARS-CoV-2 (A549-hACE2)): 5.89 µM
- EC90 (SARS-CoV-2 (A549-hACE2); Severe acute respiratory syndrome coronavirus 2, read-out: EC90, SARS-CoV-2 (A549-hACE2)): 6.5 µM
- IC50 (EBOV (VP30, Huh); [11]): 11.6 µM
- EC50 (CHIKV): 24.6 µM
- EC50 (VEEV): 86.7 µM
- EC50 (OC43): 1.5 µM
- CC50 (in vitro [1]): > 100 µM
- CC50 (in vitro [8]): > 100 µM
- CC50 [3]: > 100 µM
- CC50 [9]: > 100 µM
- CC50 [6]: > 100 µM
- CC50 [7]: > 100 µM
- CC50 [10]: > 100 µM

SMILES: CCC(CC)COC(=O)[C@H](C)N[P@](=O)(OC[C@H]1O[C@@H](n2cnc3sc4c(N)nc(N)nc4c32)C(C)(F)C1O)Oc1ccccc1 (stereo partly shown) [CEM-052]
- IC50 (DENV2): 19 µM
- IC50 (DENV4): 16 µM
- IC50 (SARS-CoV-2 (Omicron)): 20.6 µM
- EC50 (EBOV (VP30, Huh); Zaire ebolavirus): 9.1 µM
- EC50 (EBOV (VP30, Huh)): 11.4 µM
- CC50 [9]: 33 µM

SMILES: CCC(CC)COC(=O)[C@H](C)N[P@@](=O)(Oc1ccccc1)OC1[C@@H](CO[P@@](=O)(N[C@@H](C)C(=O)OCC(CC)CC)Oc2ccccc2)O[C@@H](n2cnc3sc4c(N)nc(N)nc4c32)C1(C)F (stereo partly shown) [CEM-053]
- IC50 (DENV2): 18 µM
- IC50 (DENV4): 2.9 µM
- IC50 (SARS-CoV-2 (Omicron)): 21.9 µM
- IC50 (SARS-CoV-2 (WA-1) [5]): 2.95 µM
- EC50 (EBOV (VP30, Huh); Zaire ebolavirus): 4.5 µM
- EC50 (EBOV (VP30, Huh)): 6.7 µM
- CC50 [9]: > 50 µM

SMILES: CC(C)OC(=O)[C@H](C)N[P@](=O)(OC[C@H]1O[C@@H](n2cnc3sc4c(N)nc(N)nc4c32)C(C)(F)C1OC(=O)C(C)C)Oc1ccccc1 (stereo partly shown) [CEM-054]
- IC50 (DENV2): 22 µM
- IC50 (DENV4): 10 µM
- IC50 (SARS-CoV-2 (Omicron)): 37.9 µM
- EC50 (EBOV (VP30, Huh); Zaire ebolavirus): 10.8 µM
- EC50 (EBOV (VP30, Huh)): 11.2 µM
- CC50 [9]: 32 µM

SMILES: CCC(CC)COC(=O)[C@H](C)N[P@](=O)(OC[C@H]1O[C@@H](n2cnc3sc4c(N)nc(N)nc4c32)[C@](C)(F)C1OC(=O)C(C)C)Oc1ccccc1 (stereo partly shown) [CEM-055]
- IC50 (SARS-CoV-2 (Omicron)): 19.6 µM
- IC50 (SARS-CoV-2 (WA-1) [5]): 11.9 µM
- EC50 (EBOV (VP30, Huh); Zaire ebolavirus): 6.2 µM
- EC50 (EBOV (VP30, Huh)): 10.1 µM

SMILES: CCC(CC)COC(=O)[C@H](C)N[P@](=O)(OC[C@H]1O[C@@H](n2cnc3sc4c(N)nc(N)nc4c32)C(O)C1O)Oc1ccccc1 (stereo partly shown) [CEM-056]
- IC50 (SARS-CoV-2 (Omicron)): 59.3 µM
- IC50 (SARS-CoV-2 (WA-1) [5]): 44.7 µM
- EC50 (EBOV (VP30, Huh); Zaire ebolavirus): 22.1 µM
